According to patent US5273978A, “Optically active isoindoline derivatives, their production and use” (Takeda Chemical Industries, Ltd., priority 1991, dated 1993):
Where two headings read alike, the source gives them in different places.

How the values were obtained:
[1] = test system: benzodiazepine receptor; assay: Inhibition of [3H]diazepam binding to benzodiazepine receptor (crude mitochondrial fraction of rat cerebral cortex); set-up: species or system male SD rats; conditions: in words
Description: The affinity of the compound of the present invention to a benzodiazepine receptor was investigated using radioactive [^3 H] diazepam.
Capability of specific binding to a benzodiazepin receptor was determined in accordance with the method described in the literature (Nature, 266, 732 (1977); European J. Pharmacol., 48, 263 (1978). Specifically, a crude mitochondrial fraction obtained from the cerebral cortex of male SD rats at 9 to 10 weeks of age was suspended in 50 mM Tris-HCL buffer (pH 7.4), and incubated, together with several concentrations of the subject drug and ^3 H-diazepam (final concentration 2 nM), at 4° C. for 20 minutes. This suspension was then filtered through a Whatman GF/B glass fiber filter, and the ^3 H-diazepam radioactivity on the filter was measured using a liquid scintillation counter. The concentration of the subject drug at which ^3 H-diazepam binding was inhibited by 50% was taken as the IC50 value.
Results from a typical compounds (VI) and (VIII) of the present invention and the corresponding racemic modifications thereof are shown in Table 1.

[2] = test system: Male rats (SD/JCL); assay: Antianxiety action (Vogel method, anticonflict water drinking test in rats); assay type: in vivo, rat (SD/JCL); conditions: for minimal effective dose: Rattus norvegicus, rats; for antianxiety action stronger than that of the corresponding racemic modification: from MED values of Table 2
[3] = po, 0.5 h, p.o., 30 minutes after dosing, water drinking frequency in 3 minutes, read-out: Minimum Effective Dose (MED), antianxiety action (Vogel method)
[4] = ip, 0.05 h, i.p., water drinking frequency in 3 minutes, read-out: Minimum Effective Dose (MED), antianxiety action (Vogel method)

## O=C(CC1c2ccccc2C(=O)N1c1ccc2ccc(Cl)nc2n1)N1CCC2(CC1)OCCO2 (racemic) [Racemic modification of (VI), reference compound]
[1]
  affinity to the benzodiazepin receptor versus racemic modification: nearly fully potent action
[2]; [3]
  minimal effective dose: 10 mg/kg

## O=C(C[C@H]1c2ccccc2C(=O)N1c1ccc2ccc(Cl)nc2n1)N1CCC2(CC1)OCCO2 [(VI), (S)-(+)-2-(7-chloro-1,8-naphthylidin-2yl)-3-[(1,4-dioxa-8-azaspiro[4.5]dec-8-yl)carbonylmethyl]isoindolin-1-one]
[1]
  affinity to the benzodiazepin receptor versus racemic modification: no enhanced affinity
[2]; po, 0.5 h, P.O., read-out: MED for antianxiety action in rats
  minimal effective dose: ≤ 1.25 mg/kg
[2]; [3]
  minimal effective dose: 1.25 mg/kg
[2]
  antianxiety action stronger than that of the corresponding racemic modification: 8 times

## O=C(C[C@H]1c2ccccc2C(=O)N1c1ccc2ccc(Cl)nc2n1)N1CCC(O)CC1 [(VIII), (S)-(+)-2-(7-chloro-1,8-naphthylidin-2-yl)-3-[(4-hydroxypiperidin-1-yl)carbonylmethyl]isoindolin-1-one]
[2]; [4]
  minimal effective dose: 5 mg/kg
[2]
  antianxiety action stronger than that of the corresponding racemic modification: 4 times

## O=C(CC1c2ccccc2C(=O)N1c1ccc2ccc(Cl)nc2n1)N1CCC(O)CC1 (racemic) [Racemic modification of (VIII), reference compound]
[2]; [4]
  minimal effective dose: 20 mg/kg
